Values quoted from earlier work, collected in US20040197397A1, “Drug delivery system for treatment of urinary incontinence” (Watson Pharmaceuticals, Inc., priority 2002, published 2004).

Settings: free base

In the case of CCN(CC)CC#CCOC(=O)C(O)(c1ccccc1)C1CCCCC1 (stereo not shown) [Oxybutynin free base, Oxybutynin], the pKa is listed as 10.3.
